Test results from ChEMBL document CHEMBL4184115, “In vitro and in silico evaluations of diarylpentanoid series as α-glucosidase inhibitor” (Bioorg Med Chem Lett, 2018).

What was measured:
Alpha glucosidase [1] = target: T1, Alpha glucosidase (Homo sapiens, UniProt O43451+P10253+P14410+Q2M2H8); assay: Inhibition of alpha-glucosidase (unknown origin) at 50 uM using 4-Nitrophenyl-alpha-D-glucopyranoside as substrate incubated foe 5 mins followed by substrate addition measured after 15 mins relative to control; type: protein assay
Alpha glucosidase [2] = target: T1, Alpha glucosidase; assay: Inhibition of alpha-glucosidase (unknown origin) using 4-Nitrophenyl-alpha-D-glucopyranoside as substrate incubated foe 5 mins followed by substrate addition measured after 15 mins; type: protein assay

O=C(/C=C(O)/C=C/c1cccc(O)c1)c1cc(Cl)ccc1O
inhibition (Alpha glucosidase [1]): 62.4%
IC50 (Alpha glucosidase [2]): 36.4 µM

O=C(/C=C(O)/C=C/c1cc(O)ccc1O)c1ccc(O)cc1O
inhibition (Alpha glucosidase [1]): 86.6%
IC50 (Alpha glucosidase [2]): 20 µM

O=C1/C(=C/c2ccccc2)CCC/C1=C\c1ccc(F)c(F)c1
inhibition (Alpha glucosidase [1]): 37.8%

O=C1/C(=C/c2ccccc2)CCC/C1=C\c1ccccc1Br
inhibition (Alpha glucosidase [1]): 46.8%

O=C1/C(=C/c2ccccc2)CCC/C1=C\c1cccc(F)c1
inhibition (Alpha glucosidase [1]): 39.8%

O=c1c(O)c(-c2ccc(O)c(O)c2)oc2cc(O)cc(O)c12 [QUERCETIN]
inhibition (Alpha glucosidase [1]): 83.6%
IC50 (Alpha glucosidase [2]): 7.8 µM

O=C(C1=C(O)/C(=C/c2ccc(O)cc2)CCC1)c1ccccc1
inhibition (Alpha glucosidase [1]): 34.9%

O=C(/C=C(O)/C=C/c1ccc(O)cc1)c1cc(Cl)ccc1O
inhibition (Alpha glucosidase [1]): 45.3%

Cc1cccc(/C=C2\CCC/C(=C\c3ccccc3)C2=O)c1
inhibition (Alpha glucosidase [1]): 47.9%

O=C1/C(=C/c2ccccc2)CCC/C1=C\c1cccc(Br)c1
inhibition (Alpha glucosidase [1]): 27.2%

O=C1/C(=C/c2ccccc2)CCC/C1=C\c1ccc(Cl)cc1
inhibition (Alpha glucosidase [1]): 27.6%

O=C1/C(=C/c2ccccc2)CCC/C1=C\c1cccc(O)c1
inhibition (Alpha glucosidase [1]): 65.1%
IC50 (Alpha glucosidase [2]): 28.4 µM

COc1cccc(/C=C2\CCC/C(=C\c3ccccc3)C2=O)c1OC
inhibition (Alpha glucosidase [1]): 31.8%

COc1cc(/C=C2\CCC/C(=C\c3ccccc3)C2=O)cc(OC)c1OC
inhibition (Alpha glucosidase [1]): 16.3%

O=C1/C(=C/c2ccccc2)CCC/C1=C\c1ccccc1F
inhibition (Alpha glucosidase [1]): 43%

COc1ccc(OC)c(/C=C2\CCC/C(=C\c3ccccc3)C2=O)c1
inhibition (Alpha glucosidase [1]): 43.8%

O=C(/C=C(O)/C=C/c1ccc(O)c(O)c1)c1ccccc1O
inhibition (Alpha glucosidase [1]): 93.6%
IC50 (Alpha glucosidase [2]): 14.3 µM

O=C1/C(=C/c2ccccc2)CCC/C1=C\c1ccc(Cl)c(Cl)c1
inhibition (Alpha glucosidase [1]): 48.4%

O=C(/C=C(O)/C=C/c1cc(O)ccc1O)c1cc(O)ccc1O
inhibition (Alpha glucosidase [1]): 96.9%
IC50 (Alpha glucosidase [2]): 19.6 µM

O=C(/C=C(O)/C=C/c1ccc(O)cc1)c1ccccc1O
inhibition (Alpha glucosidase [1]): 20.4%

O=C1/C(=C/c2ccccc2)CCC/C1=C\c1ccc(F)cc1
inhibition (Alpha glucosidase [1]): 34%

O=C1/C(=C/c2ccccc2)CCC/C1=C\c1ccc(O)c(O)c1
inhibition (Alpha glucosidase [1]): 90.7%
IC50 (Alpha glucosidase [2]): 20.3 µM

O=C(C1=C(O)/C(=C/c2ccc(O)c(O)c2)CCC1)c1ccccc1
inhibition (Alpha glucosidase [1]): 55.9%
IC50 (Alpha glucosidase [2]): 41 µM

O=C(/C=C(O)/C=C/c1ccc(O)c(O)c1)c1cc(Cl)ccc1O
inhibition (Alpha glucosidase [1]): 85.6%
IC50 (Alpha glucosidase [2]): 15.1 µM

O=C(/C=C(O)/C=C/c1ccc(O)cc1O)c1ccccc1O
inhibition (Alpha glucosidase [1]): 61.2%
IC50 (Alpha glucosidase [2]): 40.7 µM

O=C(C1=C(O)/C(=C/c2cccc(O)c2)CCC1)c1ccccc1
inhibition (Alpha glucosidase [1]): 43.2%

Cc1ccc(/C=C2\CCC/C(=C\c3ccccc3)C2=O)cc1
inhibition (Alpha glucosidase [1]): 34.1%

O=C(/C=C(O)/C=C/c1cccc(O)c1)c1ccccc1O
inhibition (Alpha glucosidase [1]): 40.4%

O=C1/C(=C/c2ccccc2)CCC/C1=C\c1cccc(Cl)c1Cl
inhibition (Alpha glucosidase [1]): 44%

O=C1/C(=C/c2ccccc2)CCC/C1=C\c1ccc(O)cc1
inhibition (Alpha glucosidase [1]): 53%
IC50 (Alpha glucosidase [2]): 42.3 µM

COc1ccc(/C=C2\CCC/C(=C\c3ccccc3)C2=O)c(OC)c1
inhibition (Alpha glucosidase [1]): 41%

O=C1/C(=C/c2ccccc2)CCC/C1=C\c1ccccc1Cl
inhibition (Alpha glucosidase [1]): 43%

O=C(/C=C(O)/C=C/c1ccco1)c1cc(O)ccc1O
inhibition (Alpha glucosidase [1]): 98.4%
IC50 (Alpha glucosidase [2]): 14.1 µM

COc1ccc(/C=C2\CCC/C(=C\c3ccccc3)C2=O)cc1
inhibition (Alpha glucosidase [1]): 31.4%

O=C1/C(=C/c2ccccc2)CCC/C1=C\c1ccc(Br)cc1
inhibition (Alpha glucosidase [1]): 29.1%
